Measurements: paper PMC8878047 (Pharmaceutics, 2022)
Where two headings read alike, the source gives them in different places.

Tests used:
[1] = test system: H2O2-induced ROS production; assay: H2O2-induced oxidative stress model in zebrafish (DCFH-DA); conditions: 1 μM, 48 h pre-treatment, H2O2 1.0 mM 4 h, H2O2-induced 17,250, control 590
[2] = test system: E. coli; assay: Quasi-clinical trial on E. coli-infected 817 broilers (drug-mixed feeding); conditions: for Average Final Weight / Average Weight Gain / Average Increment of Weight / Cure Rate (%) / Survival Number: 817 broilers; for Average Weight Gain: Table 7; for Average Increment of Weight: Table 8; for Cure Rate (%) / Survival Number: 6 d; for Survival Number: 50 per group
Experimental: Then, broilers were randomly and equally divided into five different groups and marked as five groups. […] Note that the daily drug-mixed feeding ratio (g drug/kg feed) was indicated for the first 4 h every day, and unmedicated feed then followed. In addition, E. coli strains for the infection of chicken was supplied as a freeze-dried powder. They were revived and cultured according to the standard procedures. The strain was inoculated into a liquid medium and cultured in a 37 °C incubator for 6–8 h. We detected the concentration of the bacterial liquid to be 2.8 × 10^8 CFU/mL as the pathogenic concentration. Finally, all of the chickens except the healthy control group were intramuscularly injected with 0.5 mL of pathogenic bacteria, and all chickens were fasted for 4 h. After successfully simulating the bacterial infection of the chickens, the drug-mixed feeding chickens were continuously fed for 6 d. During this time, we observed their behavioral habits, mortality, and recovery rates.

[3] = test system: wild type AB strain zebrafish; conditions: for statistical death of the tested zebrafish / statistical survival of the tested zebrafish: 30 embryos per well
Experimental: Zebrafish were incubated and grown in the Joint Laboratory established by Shandong Rui’ying Pharmaceutical Group (Heze, China) and China Pharmaceutical University. Both the Wild-type AB (Danio rerio) and Tg(mpx:eGFP) zebrafish strains were maintained under the guidance of the standard procedures of The Zebrafish Book. […] Then the zebrafish were allowed to naturally mate and spawn the next morning. The normally born embryos were then collected after 1 h and kept in an incubating system at 28 °C. The 6 hpf (hour post fertilization) embryos were transferred into a 6-well plate exposed to 5 mL of egg water, in which 30 embryos were in each well.

[4] = EFX-Ca High 14 g + 0.75 kg feed
[5] = EFX-Ca High 14 g drug (5% solution) + 0.75 kg feed/4 h
[6] = EFX-Ca Low 6 g drug (5% solution) + 0.75 kg feed/4 h
[7] = EFX-Ca Medium 9 g + 0.75 kg feed
[8] = EFX-Ca Medium 9 g drug (5% solution) + 0.75 kg feed/4 h
[9] = 0.01 μM medicated bath, 120 hpf

Q: CCN1CCN(c2cc3c(cc2F)c(=O)c(C(=O)[O-])cn3C2CC2)CC1.CCN1CCN(c2cc3c(cc2F)c(=O)c(C(=O)[O-])cn3C2CC2)CC1.O.O.O.O.[Ca+2] [EFX-Ca, [Ca(EFX)2(H2O)4]·H2O] was tested. Which “Average IOD (integrated optical density) of green fluorescence” value [1] did it give?
A: 863 a.u.

Q: What about the “Average Final Weight” value [2, 4] of the same compound?
A: 1000 ± 51 g

Q: What about the “Average Weight Gain” value [2, 4] of the same compound?
A: 70

Q: What about the “Average Increment of Weight” value [2, 4] of the same compound?
A: 80 g

Q: What about the “Cure Rate (%)” value [2, 5] of the same compound?
A: 58%

Q: What about the “Survival Number” value [2, 5] of the same compound?
A: 29

Q: And the “Average Final Weight” value ([2]; EFX-Ca Low 6 g + 0.75 kg feed)?
A: 1210 ± 67 g

Q: And the “Average Weight Gain” value ([2]; EFX-Ca Low 6 g + 0.75 kg feed)?
A: 280

Q: What about the “Average Increment of Weight” value ([2]; EFX-Ca Low 6 g + 0.75 kg feed) of the same compound?
A: 260 g

Q: What about the “Cure Rate (%)” value [2, 6] of the same compound?
A: 88%

Q: What about the “Survival Number” value [2, 6] of the same compound?
A: 44

Q: And the “Average Final Weight” value [2, 7]?
A: 1010 ± 61 g

Q: And the “Average Weight Gain” value [2, 7]?
A: 80

Q: What about the “Average Increment of Weight” value [2, 7] of the same compound?
A: 140 g

Q: What about the “Cure Rate (%)” value [2, 8] of the same compound?
A: 80%

Q: What about the “Survival Number” value [2, 8] of the same compound?
A: 40

Q: What about the “highest cure rate, higher than the EFX dose group by” value ([2]; 817 infected chickens, EFX-Ca low dose vs EFX) of the same compound?
A: 37.5%

Q: And the “statistical death of the tested zebrafish” value (shortened to “statistical death”) ([3]; 0.01 μM medicated bath, 24 hpf)?
A: 6

Q: And the “statistical survival of the tested zebrafish” value (“statistical survival” for short) ([3]; 0.01 μM medicated bath, 24 hpf)?
A: 24

Q: What about the “statistical death” value ([3]; 0.01 μM medicated bath, 48 hpf) of the same compound?
A: 6

Q: And the “statistical survival” value ([3]; 0.01 μM medicated bath, 48 hpf)?
A: 24

Q: And the “statistical death” value ([3]; 0.01 μM medicated bath, 72 hpf)?
A: 6

Q: What about the “statistical survival” value ([3]; 0.01 μM medicated bath, 72 hpf) of the same compound?
A: 24

Q: What about the “statistical death” value ([3]; 0.01 μM medicated bath, 96 hpf) of the same compound?
A: 8

Q: What about the “statistical survival” value ([3]; 0.01 μM medicated bath, 96 hpf) of the same compound?
A: 22

Q: What about the “statistical death” value [3, 9] of the same compound?
A: 8

Q: And the “statistical survival” value [3, 9]?
A: 22

Q: And the “statistical death” value ([3]; 0.1 μM medicated bath, 24 hpf)?
A: 4

Q: What about the “statistical survival” value ([3]; 0.1 μM medicated bath, 24 hpf) of the same compound?
A: 26

Q: What about the “statistical death” value ([3]; 0.1 μM medicated bath, 48 hpf) of the same compound?
A: 4

Q: What about the “statistical survival” value ([3]; 0.1 μM medicated bath, 48 hpf) of the same compound?
A: 26

Q: What about the “statistical death” value ([3]; 0.1 μM medicated bath, 72 hpf) of the same compound?
A: 4

Q: What about the “statistical survival” value ([3]; 0.1 μM medicated bath, 72 hpf) of the same compound?
A: 26

Q: And the “statistical death” value ([3]; 0.1 μM medicated bath, 96 hpf)?
A: 4

Q: What about the “statistical survival” value ([3]; 0.1 μM medicated bath, 96 hpf) of the same compound?
A: 26

Q: And the “statistical death” value ([3]; 0.1 μM medicated bath, 120 hpf)?
A: 4

Q: And the “statistical survival” value ([3]; 0.1 μM medicated bath, 120 hpf)?
A: 26

Q: What about the “statistical death” value ([3]; 1 μM medicated bath, 24 hpf) of the same compound?
A: 2

Q: What about the “statistical survival” value ([3]; 1 μM medicated bath, 24 hpf) of the same compound?
A: 28

Q: What about the “statistical death” value ([3]; 1 μM medicated bath, 48 hpf) of the same compound?
A: 2

Q: What about the “statistical survival” value ([3]; 1 μM medicated bath, 48 hpf) of the same compound?
A: 28

Q: And the “statistical death” value ([3]; 1 μM medicated bath, 72 hpf)?
A: 2

Q: And the “statistical survival” value ([3]; 1 μM medicated bath, 72 hpf)?
A: 28

Q: And the “statistical death” value ([3]; 1 μM medicated bath, 96 hpf)?
A: 2

Q: And the “statistical survival” value ([3]; 1 μM medicated bath, 96 hpf)?
A: 28

Q: And the “statistical death” value ([3]; 1 μM medicated bath, 120 hpf)?
A: 2

Q: And the “statistical survival” value ([3]; 1 μM medicated bath, 120 hpf)?
A: 28

Q: What about the “statistical death” value ([3]; 10 μM medicated bath, 24 hpf) of the same compound?
A: 4

Q: What about the “statistical survival” value ([3]; 10 μM medicated bath, 24 hpf) of the same compound?
A: 26

Q: And the “statistical death” value ([3]; 10 μM medicated bath, 48 hpf)?
A: 4

Q: And the “statistical survival” value ([3]; 10 μM medicated bath, 48 hpf)?
A: 26

Q: What about the “statistical death” value ([3]; 10 μM medicated bath, 72 hpf) of the same compound?
A: 4

Q: What about the “statistical survival” value ([3]; 10 μM medicated bath, 72 hpf) of the same compound?
A: 26

Q: What about the “statistical death” value ([3]; 10 μM medicated bath, 96 hpf) of the same compound?
A: 4

Q: And the “statistical survival” value ([3]; 10 μM medicated bath, 96 hpf)?
A: 26

Q: What about the “statistical death” value ([3]; 10 μM medicated bath, 120 hpf) of the same compound?
A: 4

Q: What about the “statistical survival” value ([3]; 10 μM medicated bath, 120 hpf) of the same compound?
A: 26

Q: And the “statistical death” value ([3]; 20 μM medicated bath, 24 hpf)?
A: 0

Q: And the “statistical survival” value ([3]; 20 μM medicated bath, 24 hpf)?
A: 30

Q: And the “statistical death” value ([3]; 20 μM medicated bath, 48 hpf)?
A: 0

Q: What about the “statistical survival” value ([3]; 20 μM medicated bath, 48 hpf) of the same compound?
A: 30

Q: And the “statistical death” value ([3]; 20 μM medicated bath, 72 hpf)?
A: 0

Q: And the “statistical survival” value ([3]; 20 μM medicated bath, 72 hpf)?
A: 30

Q: And the “statistical death” value ([3]; 20 μM medicated bath, 96 hpf)?
A: 0

Q: What about the “statistical survival” value ([3]; 20 μM medicated bath, 96 hpf) of the same compound?
A: 30

Q: What about the “statistical death” value ([3]; 20 μM medicated bath, 120 hpf) of the same compound?
A: 0

Q: What about the “statistical survival” value ([3]; 20 μM medicated bath, 120 hpf) of the same compound?
A: 30

Q: And the “physiological abnormalities of zebrafish” value ([3]; full-range concentration 0.01 to 20 μM, 24 to 120 hpf)?
A: no obvious physiological abnormalities
